Tests used:
Format in all cases: in vivo, human
MenaINV = MenaINV gene expression in FNA biopsy samples by real-time RT-PCR before and after NAC with paclitaxel; conditions: FNA biopsies from 5 breast cancer patients, before vs after 2 weeks of NAC with paclitaxel; FIG. 5E
Procedure: (§1) FIG. 5A-5D. Neoadjuvant chemotherapy increases TMEM, MenaCalc and MenaINV scores in some breast cancer patients. Paclitaxel (and other cytotoxic chemotherapy) increases TMEM Score, MenaCalc and MenaINV expression in breast cancer patients treated with neoadjuvant chemotherapy (NAC). (A) Study design. (B) Individual TMEM scores of 20 patients before and after receiving NAC, which included weekly paclitaxel (80 mg/m^2×12 consecutive weeks) followed sequentially by dose-dense AC chemotherapy (doxorubicin 60 mg/m^2 and cyclophosphamide 600 mg/m^2 every 2 weeks×4 cycles, plus pegrastim 6 mg SC on day 2 of each cycle). Horizontal line; TMEM high-risk cutoff point. For each pair of bars, Pre-NAC scores are shown in the first bar in the pair and Post-NAC scores are shown in the second bar. […] (D) MenaCalc expression in fine needle aspiration (FNA) biopsies, as assessed by real-time RT-PCR from 4 patients before and after 2 doses of neo-adjuvant chemotherapy with paclitaxel. (E) MenaINV gene expression in FNA biopsy samples, as assessed by real-time RT-PCR, taken from 5 breast cancer patients before and after 2-weeks of receiving NAC with paclitaxel. […]
(§2) MenaCalc expression was determined in fine needle aspiration (FNA) biopsies, as assessed by real-time RT-PCR from 4 patients before and after 2 doses of neo-adjuvant chemotherapy with paclitaxel (see FIG. 5D). […]

MenaCalc = MenaCalc expression in FNA biopsies by real-time RT-PCR before and after NAC with paclitaxel; conditions: FNA biopsies from 4 patients, before vs after 2 doses of neo-adjuvant paclitaxel; FIG. 5D
Procedure: as §1, §2

[1] = system: TMEM (Tumor Microenvironment of Metastasis); experiment: TMEM score in breast cancers before and after neoadjuvant chemotherapy (NAC); conditions: 20 breast cancer patients, before vs after NAC (weekly paclitaxel 80 mg/m^2 x 12 weeks followed by dose-dense AC); FIG. 5B-C
Procedure: as §1, with “point.” for “point. For each pair of bars, Pre-NAC scores are shown in the first bar in the pair and Post-NAC scores are shown in the second bar.”
Individual TMEM scores of 20 patients were determined before and after receiving NAC, which included weekly paclitaxel (80 mg/m^2×12 consecutive weeks) followed sequentially by dose-dense AC chemotherapy (doxorubicin 60 mg/m^2 and cyclophosphamide 600 mg/m^2 every 2 weeks×4 cycles, plus pegrastim 6 mg SC on day 2 of each cycle) (see FIG. 5B). […]

CC(=O)O[C@H]1C(=O)[C@@]2(C)[C@H]([C@H](OC(=O)c3ccccc3)[C@]3(O)C[C@H](OC(=O)[C@H](O)[C@@H](NC(=O)c4ccccc4)c4ccccc4)C(C)=C1C3(C)C)[C@]1(OC(C)=O)CO[C@@H]1C[C@@H]2O [paclitaxel]
increases: MenaINV expression (MenaINV) | MenaCalc expression (MenaCalc) | TMEM Score [1]

Reference: patent US12174190B2, “Combined markers for metastatic cancer and uses thereof” (Albert Einstein College of Medicine, priority 2017, dated 2024)
